According to patent USRE40086E1, “Method for treating bacterial infection with novel 7-substituted-9-substituted amino 6-demethyl-6-deoxytetracyclines” (Wyeth Holdings Corporation, priority 1991, dated 2008):
Counter-ions that a name gives are not always drawn. Like-named read-outs stand apart in the source and are kept apart here.

How the values were obtained:
[1] = system: S. aureus IVES 2943 (meth. resistant); test: MIC, agar dilution; type: cell-based; conditions: S. aureus IVES 2943; Table IA; unit assumed
Clostridium spp. = type: cell-based; conditions: [9] tested
S. aureus SMITH (sens) = test: In vivo antibacterial evaluation, acute lethal infection in mice; conditions: Intraveneous
E. coli PRP1 TetA = test: MIC, agar dilution (Table IA); type: cell-based; conditions: unit assumed
E. coli ATCC 25922 = test: MIC, agar dilution; type: cell-based
E. faecalis 12201 = test: MIC, agar dilution; type: cell-based
[2] = system: Staphylococcus Coagulase-negative, methicillin-susceptible; test: MIC vs recent clinical and agricultural isolates (Table V, KK); type: cell-based; conditions: [16] tested
[3] = system: TetM S30 extract, derivative of E. coli MRE600 containing the tetM determinant; test: E. coli in vitro transcription and protein translation, 35S-methionine incorporation (Table VIII)
Bacteroides fragilis = test: MIC vs recent clinical and agricultural isolates (Table V, KK); type: cell-based; conditions: [11] tested
E. coli J3272 TetC = test: MIC, agar dilution (Table IA); type: cell-based; conditions: unit assumed
E. coli #311 (MP) = test: MIC, agar dilution (Table IA); type: cell-based; conditions: unit assumed
[4] = system: S. aureus IVES 1983 (meth. resistant); test: MIC, agar dilution; type: cell-based; conditions: S. aureus IVES 1983; Table IA; unit assumed
Enterococcus faecalis [5] = test: MIC vs recent clinical and agricultural isolates (Table V, KK); type: cell-based; conditions: [10] tested
[6] = system: E. coli UBMS 89-2 (Sensitive); test: MIC, agar dilution; type: cell-based
E. coli J3272 Tet sens. = test: MIC, agar dilution (Table IA); type: cell-based; conditions: unit assumed
[7] = system: X. maltophilia NEMC 87210; test: MIC, agar dilution (Table IA); type: cell-based; conditions: unit assumed
[8] = system: S. aureus UBMS 88-5 (tetM); test: MIC, agar dilution; type: cell-based; conditions: for MIC: S. aureus UBMS 88-5 (tetM)
Haemophilus influenzae [9] = test: MIC vs recent clinical and agricultural isolates (Table V, KK); type: cell-based; conditions: [15] tested
[10] = system: Wild Type S30 extract, E. coli strain MRE600 (tetracycline sensitive); test: E. coli in vitro transcription and protein translation, 35S-methionine incorporation (Table VIII)
E. coli BAJ9003 = test: MIC, agar dilution (Table IA); type: cell-based; conditions: unit assumed
E. coli MC4100 TetB = test: MIC, agar dilution (Table IA); type: cell-based; conditions: unit assumed
E. coli J3272 TetD = test: MIC, agar dilution (Table IA); type: cell-based; conditions: unit assumed
[11] = system: Salmonella cholerasuis (Agricultural); test: MIC vs recent clinical and agricultural isolates (Table V, KK); type: cell-based; conditions: [15] tested
S. mariescens FDOR 8733 = test: MIC, agar dilution (Table IA); type: cell-based; conditions: unit assumed
Neisseria gonorrhoeae = test: MIC against clinical isolates (Table V, A and O); type: cell-based; conditions: Neisseria gonorrhoeae clinical isolates, (9) tested
Enterococcus faecium = test: MIC against clinical isolates (Table V, A and O); type: cell-based; conditions: Enterococcus faecium clinical isolates, (11) tested
[12] = system: N. gonorrhoeae 6418 (tetM); test: MIC, agar dilution; type: cell-based; conditions: Neisseria gonorrhoeae
Enterococcus faecalis [13] = test: MIC against clinical isolates (Table V, A and O); type: cell-based; conditions: Enterococcus faecalis clinical isolates, (14) tested
Klebsiella pneumoniae = test: MIC against clinical isolates (Table V, A and O); type: cell-based; conditions: Klebsiella pneumoniae clinical isolates, (10) tested
Bacteroides spp. = test: MIC against clinical isolates (Table V, A and O); type: cell-based; conditions: Bacteroides spp. clinical isolates, (15) tested
[14] = system: E. faecalis UBMS 90-7 (tetM); test: MIC, agar dilution; type: cell-based; conditions: Enterococcus faecalis
Haemophilus influenzae [15] = test: MIC against clinical isolates (Table V, A and O); type: cell-based; conditions: (18) tested
S. aureus UBMS 90-1 = test: In vivo antibacterial evaluation, acute lethal infection in mice; conditions: Staphylococcus aureus, UBMS901, sc, read-out: ED50, median effective dose protecting 50% of the infected mice; mice infected with S. aureus UBMS 90-1 (tetM), single subcutaneous dosing
Description: (§1) In Vivo Antibacterial Evaluation (Table VII)

S. aureus UBMS 90-2 = test: as above; conditions: Staphylococcus aureus, UBMS902, sc, read-out: ED50, median effective dose protecting 50% of the infected mice; mice infected with S. aureus UBMS 90-2 (tetM), single subcutaneous dosing
Description: as §1

Proteus spp. indole+ = test: MIC against clinical isolates (Table V, A and O); type: cell-based; conditions: Proteus spp. indole+ clinical isolates, (9) tested
[16] = system: E. coli UBMS 88-2 (Sensitive); test: MIC, agar dilution; type: cell-based; conditions: Escherichia coli; E. coli UBMS 88-2 (Sensitive); read-out: MIC

CN(C)CC(=O)Nc1cc(N(C)C)c2c(c1O)C(=O)C1=C(O)[C@]3(O)C(=O)C(C(N)=O)=C(O)[C@@H](N(C)C)C3CC1C2.Cl.Cl (stereo partly drawn) [KK, [4S-(4alpha,12aalpha)]-4,7-Bis(dimethylamino)-9-[[(dimethylamino)acetyl]amino]-1,4,4a,5,5a,6,11,12a-octahydro-3,10,12,12a-tetrahydroxy-1,11-dioxo-2-naphthacenecarboxamide dihydrochloride]
Antibacterial activity (MIC) [1]: 1 µg/mL | MIC (range over isolates) (Clostridium spp.): 0.015 to 0.12 µg/mL | ED50 (S. aureus SMITH (sens)): 0.68 mg/kg | Antibacterial activity (MIC) (E. coli PRP1 TetA): 1 µg/mL | Antibacterial activity (MIC) (E. coli ATCC 25922; E. coli ATCC 25922, Table IA, unit assumed): 0.25 µg/mL | Antibacterial activity (MIC) (E. faecalis 12201; Enterococcus 12201, Table IA, unit assumed): 0.12 µg/mL | MIC (range over isolates) [2]: 0.12 to 8 µg/mL | % INHIBITION TetM S30 ([3]; 0.03 mg/ml): 75% | % INHIBITION TetM S30 ([3]; 0.06 mg/ml): 89% | % INHIBITION TetM S30 ([3]; 0.5 mg/ml): 96% | % INHIBITION TetM S30 ([3]; 1.0 mg/ml): 95% | MIC (range over isolates) (Bacteroides fragilis): 0.06 to 0.2 µg/mL | Antibacterial activity (MIC) (E. coli J3272 TetC): 1 µg/mL | Antibacterial activity (MIC) (E. coli #311 (MP)): 0.25 µg/mL | Antibacterial activity (MIC) [4]: 1 µg/mL | MIC (range over isolates) (Enterococcus faecalis [5]): 0.015 to 0.12 µg/mL | Antibacterial activity (MIC) ([6]; E. coli UBMS 89-2 Tet Sens., Table IA, unit assumed): 0.25 µg/mL | Antibacterial activity (MIC) (E. coli J3272 Tet sens.): 0.12 µg/mL | Antibacterial activity (MIC) [7]: 0.25 µg/mL | Antibacterial activity (MIC) ([8]; S. aureus UBMS 88-5 TetM, Table IA, unit assumed): 0.25 µg/mL | MIC (range over isolates) (Haemophilus influenzae [9]): 0.5 to 2 µg/mL | % INHIBITION Wild Type S30 ([10]; 0.03 mg/ml): 81% | % INHIBITION Wild Type S30 ([10]; 0.06 mg/ml): 82% | % INHIBITION Wild Type S30 ([10]; 0.5 mg/ml): 90% | % INHIBITION Wild Type S30 ([10]; 1.0 mg/ml): 92% | Antibacterial activity (MIC) (E. coli BAJ9003): 0.03 µg/mL | Antibacterial activity (MIC) (E. coli MC4100 TetB): 0.25 µg/mL | Antibacterial activity (MIC) (E. coli J3272 TetD): 0.12 µg/mL | MIC (range over isolates) [11]: 0.5 to 16 µg/mL | Antibacterial activity (MIC) (S. mariescens FDOR 8733): 2 µg/mL

CN(C)c1ccc(O)c2c1C[C@H]1C[C@H]3[C@H](N(C)C)C(O)=C(C(N)=O)C(=O)[C@@]3(O)C(O)=C1C2=O [Compound O, 7-(Dimethylamino)-6-demethyl-6-deoxytetracycline hydrochloride (minocycline hydrochloride), reference compound]
MIC50 (Neisseria gonorrhoeae; read-out: MIC50): 0.25 µg/mL | MIC90 (Neisseria gonorrhoeae; read-out: MIC90): > 32 µg/mL | MIC (E. coli ATCC 25922; E. coli ATCC 25922, hydrochloride): 0.5 µg/mL | MIC (E. coli ATCC 25922; Escherichia coli, ATCC25922, E. coli ATCC 25922, read-out: MIC): 0.25 µg/mL | MIC (E. faecalis 12201; E. faecalis 12201, hydrochloride): 8 µg/mL | MIC (E. faecalis 12201; Enterococcus faecalis, 12201, E. faecalis 12201, read-out: MIC): 4 µg/mL | MIC (range over isolates) [2]: 0.03 to 1 µg/mL | MIC Range (Enterococcus faecium): <0.015 to 16.00 µg/mL | MIC50 (Enterococcus faecium; read-out: MIC50): 8 µg/mL | MIC90 (Enterococcus faecium; read-out: MIC90): 16 µg/mL | MIC (range over isolates) (Bacteroides fragilis): <0.008 to 16 µg/mL | MIC [12]: > 32 µg/mL | MIC Range (Enterococcus faecalis [13]): <0.015 to 16.00 µg/mL | MIC50 (Enterococcus faecalis [13]; read-out: MIC50): 4 µg/mL | MIC90 (Enterococcus faecalis [13]; read-out: MIC90): 16 µg/mL | MIC50 (Klebsiella pneumoniae; read-out: MIC50): 1 µg/mL | MIC90 (Klebsiella pneumoniae; read-out: MIC90): 4 µg/mL | MIC Range (Bacteroides spp.): >0.15 to 16.00 µg/mL | MIC50 (Bacteroides spp.; read-out: MIC50): 1 µg/mL | MIC90 (Bacteroides spp.; read-out: MIC90): 4 µg/mL | MIC [14]: 8 µg/mL | MIC (range over isolates) (Enterococcus faecalis [5]): 0.03 to 16 µg/mL | MIC ([6]; Escherichia coli, E. coli UBMS 89-2 (Sensitive), read-out: MIC): 0.5 µg/mL | MIC ([8]; hydrochloride): 4 µg/mL | MIC ([8]; Staphylococcus aureus): 2 µg/mL | MIC50 (Haemophilus influenzae [15]): 0.12 µg/mL | MIC90 (Haemophilus influenzae [15]): 0.25 µg/mL | MIC Range (Haemophilus influenzae [15]): 0.06 to 0.25 µg/mL | MIC (range over isolates) (Haemophilus influenzae [9]): 0.5 to 2 µg/mL | ED50 (S. aureus UBMS 90-1): 1.7 mg/kg | ED50 (S. aureus UBMS 90-2): 3 mg/kg | MIC50 (Proteus spp. indole+; read-out: MIC50): 16 µg/mL | MIC90 (Proteus spp. indole+; read-out: MIC90): > 32 µg/mL | MIC [16]: 0.5 µg/mL
